Active and inactive are the calls of the source.
Columns and labels:
[1] = HEp-2 cell cytotoxicity, dose response, cytotoxicity control for RSV inhibitor project, HTS (AID 2410); type: functional; conditions: human respiratory syncytial virus
[2] = biological target: Protein Wnt-3a (Mus musculus, UniProt P27467); assay: Wnt3a-driven reporter signaling inhibition, dose response, selectivity assay for Gli-SUFU antagonist project, Wnt-LIGHT cells, luminescence (AID 651570); type: functional; conditions: read-out: IC50_Mean;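 also: Wnt-LIGHT reporter cells stimulated with conditioned medium from Wnt3a-producing cells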
[3] = biological target: Cytochrome P450 3A4 (Homo sapiens, UniProt P08684);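 also: CYP3A4 tested as one member of a cytochrome P450 panel screen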
[4] = NIH-3T3 fibroblast cytotoxicity, dose response, cytotoxicity control, cell-based, fluorescence, Alamar Blue, secondary assay (AID 2327); type: functional;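 also: NIH-3T3 mouse fibroblasts cultured with fluconazole at 8 µg/mL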
[5] = C. albicans growth with fluconazole, confirmation, fluorescence, retest (AID 2467); type: functional, cell-based
[6] = biological target: Genome polyprotein (dengue virus type 2, UniProt P29990); assay: Dengue-2 NS5 methyltransferase inhibitors, primary screen, biochemical, confirmation dose response (AID 588689); type: functional
[7] = biological target: T1, Histone-lysine N-methyltransferase NSD2 (Homo sapiens, UniProt O96028); type: biochemical
T1 sequence (O96028 whole entry): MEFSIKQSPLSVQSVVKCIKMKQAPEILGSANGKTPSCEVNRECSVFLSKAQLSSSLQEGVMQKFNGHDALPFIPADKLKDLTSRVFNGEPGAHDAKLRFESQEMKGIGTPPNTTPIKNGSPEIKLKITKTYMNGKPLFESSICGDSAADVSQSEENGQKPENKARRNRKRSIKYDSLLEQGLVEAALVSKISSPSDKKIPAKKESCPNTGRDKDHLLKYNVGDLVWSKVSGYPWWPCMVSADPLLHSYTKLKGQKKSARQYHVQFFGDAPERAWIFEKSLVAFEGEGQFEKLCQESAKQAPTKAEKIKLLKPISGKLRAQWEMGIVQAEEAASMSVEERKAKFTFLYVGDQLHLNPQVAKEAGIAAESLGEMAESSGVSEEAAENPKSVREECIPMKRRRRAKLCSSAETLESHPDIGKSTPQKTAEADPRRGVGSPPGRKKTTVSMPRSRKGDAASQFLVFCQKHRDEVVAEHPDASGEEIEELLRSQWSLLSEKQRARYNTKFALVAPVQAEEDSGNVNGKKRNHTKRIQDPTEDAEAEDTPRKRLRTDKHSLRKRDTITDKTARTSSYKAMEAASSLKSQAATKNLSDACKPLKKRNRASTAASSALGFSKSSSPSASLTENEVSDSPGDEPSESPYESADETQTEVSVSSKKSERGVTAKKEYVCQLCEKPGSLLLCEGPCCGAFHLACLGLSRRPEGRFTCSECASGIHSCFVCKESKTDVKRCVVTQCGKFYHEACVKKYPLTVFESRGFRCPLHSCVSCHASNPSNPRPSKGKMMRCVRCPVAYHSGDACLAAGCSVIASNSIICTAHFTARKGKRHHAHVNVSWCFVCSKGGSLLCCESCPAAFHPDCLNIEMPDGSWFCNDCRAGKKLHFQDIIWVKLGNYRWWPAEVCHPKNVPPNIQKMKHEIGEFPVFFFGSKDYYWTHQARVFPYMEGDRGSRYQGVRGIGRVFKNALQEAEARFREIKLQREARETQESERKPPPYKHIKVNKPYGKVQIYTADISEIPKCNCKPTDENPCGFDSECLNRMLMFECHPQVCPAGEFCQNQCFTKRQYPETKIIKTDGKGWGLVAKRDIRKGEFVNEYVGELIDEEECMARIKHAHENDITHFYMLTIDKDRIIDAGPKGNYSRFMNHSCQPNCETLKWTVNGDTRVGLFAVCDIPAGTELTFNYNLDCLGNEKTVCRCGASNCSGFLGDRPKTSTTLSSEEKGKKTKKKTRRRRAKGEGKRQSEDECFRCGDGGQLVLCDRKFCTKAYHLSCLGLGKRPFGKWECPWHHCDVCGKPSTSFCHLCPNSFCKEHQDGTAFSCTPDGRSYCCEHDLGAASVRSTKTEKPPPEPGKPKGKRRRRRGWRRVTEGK

[8] = biological target: T2, Corticotropin-releasing factor receptor 2/Corticotropin-releasing factor-binding protein (Homo sapiens, UniProt P24387+Q13324); assay: Dose Response confirmation of uHTS hits for small molecule antagonists of the CRF-binding protein and CRF-R2 receptor complex.; type: functional; conditions: read-out: IC50_Mean
T2 sequence (Q13324 whole entry): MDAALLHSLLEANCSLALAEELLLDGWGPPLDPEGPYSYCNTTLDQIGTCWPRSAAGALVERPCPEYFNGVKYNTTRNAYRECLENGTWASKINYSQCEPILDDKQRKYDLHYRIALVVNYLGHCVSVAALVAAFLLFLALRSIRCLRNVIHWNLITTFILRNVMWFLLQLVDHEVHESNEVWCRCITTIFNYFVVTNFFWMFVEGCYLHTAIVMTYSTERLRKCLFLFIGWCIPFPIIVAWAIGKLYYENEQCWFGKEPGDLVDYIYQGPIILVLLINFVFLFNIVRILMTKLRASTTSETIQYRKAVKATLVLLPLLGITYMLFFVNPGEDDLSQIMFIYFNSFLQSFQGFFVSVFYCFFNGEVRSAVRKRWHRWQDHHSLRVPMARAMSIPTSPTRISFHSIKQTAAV
T2 sequence (P24387 whole entry): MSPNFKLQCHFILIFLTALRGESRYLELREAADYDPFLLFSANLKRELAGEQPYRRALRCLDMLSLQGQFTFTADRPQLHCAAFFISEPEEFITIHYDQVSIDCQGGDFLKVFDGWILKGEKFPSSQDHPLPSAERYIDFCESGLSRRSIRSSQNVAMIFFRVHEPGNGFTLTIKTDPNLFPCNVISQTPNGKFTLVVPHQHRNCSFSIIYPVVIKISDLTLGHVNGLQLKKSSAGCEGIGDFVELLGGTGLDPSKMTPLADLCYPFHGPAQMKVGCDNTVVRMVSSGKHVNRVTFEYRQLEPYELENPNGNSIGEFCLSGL

[9] = biological target: T2, Corticotropin-releasing factor receptor 2/Corticotropin-releasing factor-binding protein; assay: activators of CRF receptor 2 with binding protein – uHTS hits, confirmation (AID 602473); type: functional; conditions: read-out: EC50_Mean
[10] = CRF-BP/CRF-R2 complex antagonists, dose response, cell-based, uHTS hits, 384-well (AID 651639); type: functional, Homo sapiens; conditions: read-out: IC50_Mean

Chain of Genome polyprotein (P29990 2492-3391 limits assumed): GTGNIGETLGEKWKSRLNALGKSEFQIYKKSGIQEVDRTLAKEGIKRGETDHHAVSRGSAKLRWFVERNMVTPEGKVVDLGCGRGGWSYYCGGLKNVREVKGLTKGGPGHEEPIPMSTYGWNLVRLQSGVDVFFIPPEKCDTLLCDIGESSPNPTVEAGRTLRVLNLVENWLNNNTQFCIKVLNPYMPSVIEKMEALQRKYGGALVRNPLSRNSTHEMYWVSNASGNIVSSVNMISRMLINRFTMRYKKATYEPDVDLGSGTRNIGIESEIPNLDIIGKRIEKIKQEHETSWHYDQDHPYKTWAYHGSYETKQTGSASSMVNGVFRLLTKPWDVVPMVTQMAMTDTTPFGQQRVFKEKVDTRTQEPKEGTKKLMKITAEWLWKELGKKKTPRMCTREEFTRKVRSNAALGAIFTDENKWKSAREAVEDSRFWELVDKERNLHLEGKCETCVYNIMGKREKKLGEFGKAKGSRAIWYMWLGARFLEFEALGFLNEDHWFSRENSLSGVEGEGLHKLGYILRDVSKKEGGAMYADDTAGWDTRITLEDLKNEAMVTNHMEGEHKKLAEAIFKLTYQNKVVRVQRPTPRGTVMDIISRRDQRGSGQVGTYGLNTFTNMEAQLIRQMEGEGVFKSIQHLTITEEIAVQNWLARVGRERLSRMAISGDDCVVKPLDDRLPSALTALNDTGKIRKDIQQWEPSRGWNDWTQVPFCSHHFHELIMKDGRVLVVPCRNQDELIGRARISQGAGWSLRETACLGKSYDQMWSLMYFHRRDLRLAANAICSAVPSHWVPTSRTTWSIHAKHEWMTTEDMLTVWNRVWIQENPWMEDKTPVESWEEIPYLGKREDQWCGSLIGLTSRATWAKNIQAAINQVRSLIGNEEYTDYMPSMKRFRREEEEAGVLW
Chain of Protein Wnt-3a (P27467 whole entry): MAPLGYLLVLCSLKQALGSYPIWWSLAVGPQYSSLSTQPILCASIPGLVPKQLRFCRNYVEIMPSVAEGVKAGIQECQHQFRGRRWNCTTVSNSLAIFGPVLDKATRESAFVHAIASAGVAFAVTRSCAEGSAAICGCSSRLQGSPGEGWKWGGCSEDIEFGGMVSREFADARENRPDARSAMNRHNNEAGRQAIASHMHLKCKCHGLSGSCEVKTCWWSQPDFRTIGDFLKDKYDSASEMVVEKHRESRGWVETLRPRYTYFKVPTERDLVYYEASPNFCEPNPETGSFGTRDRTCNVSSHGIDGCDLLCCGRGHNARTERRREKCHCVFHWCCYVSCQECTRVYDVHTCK
Chain of Cytochrome P450 3A4 (P08684 whole entry): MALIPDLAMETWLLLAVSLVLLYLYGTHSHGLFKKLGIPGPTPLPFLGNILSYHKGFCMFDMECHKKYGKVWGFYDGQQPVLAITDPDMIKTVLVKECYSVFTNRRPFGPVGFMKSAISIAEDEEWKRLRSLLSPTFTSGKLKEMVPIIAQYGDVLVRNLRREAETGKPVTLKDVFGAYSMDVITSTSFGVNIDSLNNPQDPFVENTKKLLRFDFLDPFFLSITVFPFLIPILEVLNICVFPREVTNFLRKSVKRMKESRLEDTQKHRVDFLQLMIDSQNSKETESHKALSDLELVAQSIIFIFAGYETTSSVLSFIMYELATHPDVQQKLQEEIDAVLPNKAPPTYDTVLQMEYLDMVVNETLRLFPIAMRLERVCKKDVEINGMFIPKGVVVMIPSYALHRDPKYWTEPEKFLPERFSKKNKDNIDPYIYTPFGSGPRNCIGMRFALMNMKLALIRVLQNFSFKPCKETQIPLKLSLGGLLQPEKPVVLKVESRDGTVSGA

| Compound | CC50 [1] | IC50 [2] | AC50 [3] | EC50 [4] | EC50 [5] | IC50 [6] | AC50 [7] | IC50 [8] | EC50 [9] | IC50 [10] |
| --- | --- | --- | --- | --- | --- | --- | --- | --- | --- | --- |
| COc1ccc(-c2nn(-c3ccccc3)cc2/C=N/NC(=O)c2ccc(Br)o2)cc1 | 18.8 µM (active) | 7.01 µM (active) | 15.8 µM (inconclusive) |  |  |  |  |  |  |  |
| C=CCOc1ccc(/C=C2\SC(=S)N(NS(=O)(=O)c3ccc(C)cc3)C2=O)cc1 | 25 µM (active) |  |  | > 160 µM (inactive) | 1.66 µM (active) | 32.9 µM (active) | 11.7 µM (active) |  |  |  |
| COc1ccc(-c2csc(NC(=O)CSc3nc(SC)ns3)n2)cc1 |  |  |  |  |  |  |  | 1.75 µM (active) | > 53 µM (inactive) | 4.64 µM (active) |
